Results reported in ChEMBL document CHEMBL5678807, “A selective jumonji H3K27 demethylase inhibitor modulates the proinflammatory macrophage response” (Nature, 2012).

Columns and labels:
[1] = Prodrug conversion in human primary macrophage lysates assessed as formation of GSK-J1 at 30 uM measured after 1 hr by RP LC-MS/MS analysis; assay type: ADME, subcellular
[2] = biological target: T1, Lysine-specific demethylase 4A (Homo sapiens, UniProt O75164); assay: Inhibition of human JmjD2a using H3K27(me3) as substrate preincubated for 10 mins followed by substrate addition and measured after 7 mins in presence of alpha-KG by RapidFire Mass Spectrometry
T1 sequence (O75164 whole entry): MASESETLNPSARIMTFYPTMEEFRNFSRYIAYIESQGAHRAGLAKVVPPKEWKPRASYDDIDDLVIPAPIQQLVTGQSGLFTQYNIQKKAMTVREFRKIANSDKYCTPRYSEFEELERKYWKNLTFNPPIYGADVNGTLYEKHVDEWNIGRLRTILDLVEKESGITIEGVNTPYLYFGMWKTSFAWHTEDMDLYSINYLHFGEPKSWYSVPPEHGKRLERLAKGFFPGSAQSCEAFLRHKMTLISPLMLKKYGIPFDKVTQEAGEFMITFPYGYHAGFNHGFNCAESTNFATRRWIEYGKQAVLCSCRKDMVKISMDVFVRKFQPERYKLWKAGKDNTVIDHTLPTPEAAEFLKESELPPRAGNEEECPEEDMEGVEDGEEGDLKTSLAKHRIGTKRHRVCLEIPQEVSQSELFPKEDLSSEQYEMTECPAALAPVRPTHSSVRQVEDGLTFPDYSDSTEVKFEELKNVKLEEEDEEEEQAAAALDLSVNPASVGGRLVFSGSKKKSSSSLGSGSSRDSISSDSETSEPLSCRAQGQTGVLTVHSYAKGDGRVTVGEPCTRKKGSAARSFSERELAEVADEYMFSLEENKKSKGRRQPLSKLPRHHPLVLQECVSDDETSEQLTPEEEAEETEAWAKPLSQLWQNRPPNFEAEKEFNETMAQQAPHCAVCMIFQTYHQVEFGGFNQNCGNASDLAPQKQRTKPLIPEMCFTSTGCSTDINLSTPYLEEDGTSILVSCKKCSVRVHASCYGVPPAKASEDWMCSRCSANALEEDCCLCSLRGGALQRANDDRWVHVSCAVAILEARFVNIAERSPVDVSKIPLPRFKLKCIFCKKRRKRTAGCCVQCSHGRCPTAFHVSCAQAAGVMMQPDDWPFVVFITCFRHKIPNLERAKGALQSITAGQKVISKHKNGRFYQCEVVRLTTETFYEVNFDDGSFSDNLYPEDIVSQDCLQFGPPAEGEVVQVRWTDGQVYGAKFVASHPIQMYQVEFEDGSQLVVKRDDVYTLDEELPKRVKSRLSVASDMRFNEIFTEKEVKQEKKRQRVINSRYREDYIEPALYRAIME

[3] = biological target: Lysine-specific demethylase 4C (Homo sapiens, UniProt Q9H3R0); assay: Inhibition of human JmjD2c using H3K27(me3) as substrate preincubated for 10 mins followed by substrate addition and measured after 7 mins in presence of alpha-KG by RapidFire Mass Spectrometry
Sequence of Lysine-specific demethylase 4C (Q9H3R0 whole entry): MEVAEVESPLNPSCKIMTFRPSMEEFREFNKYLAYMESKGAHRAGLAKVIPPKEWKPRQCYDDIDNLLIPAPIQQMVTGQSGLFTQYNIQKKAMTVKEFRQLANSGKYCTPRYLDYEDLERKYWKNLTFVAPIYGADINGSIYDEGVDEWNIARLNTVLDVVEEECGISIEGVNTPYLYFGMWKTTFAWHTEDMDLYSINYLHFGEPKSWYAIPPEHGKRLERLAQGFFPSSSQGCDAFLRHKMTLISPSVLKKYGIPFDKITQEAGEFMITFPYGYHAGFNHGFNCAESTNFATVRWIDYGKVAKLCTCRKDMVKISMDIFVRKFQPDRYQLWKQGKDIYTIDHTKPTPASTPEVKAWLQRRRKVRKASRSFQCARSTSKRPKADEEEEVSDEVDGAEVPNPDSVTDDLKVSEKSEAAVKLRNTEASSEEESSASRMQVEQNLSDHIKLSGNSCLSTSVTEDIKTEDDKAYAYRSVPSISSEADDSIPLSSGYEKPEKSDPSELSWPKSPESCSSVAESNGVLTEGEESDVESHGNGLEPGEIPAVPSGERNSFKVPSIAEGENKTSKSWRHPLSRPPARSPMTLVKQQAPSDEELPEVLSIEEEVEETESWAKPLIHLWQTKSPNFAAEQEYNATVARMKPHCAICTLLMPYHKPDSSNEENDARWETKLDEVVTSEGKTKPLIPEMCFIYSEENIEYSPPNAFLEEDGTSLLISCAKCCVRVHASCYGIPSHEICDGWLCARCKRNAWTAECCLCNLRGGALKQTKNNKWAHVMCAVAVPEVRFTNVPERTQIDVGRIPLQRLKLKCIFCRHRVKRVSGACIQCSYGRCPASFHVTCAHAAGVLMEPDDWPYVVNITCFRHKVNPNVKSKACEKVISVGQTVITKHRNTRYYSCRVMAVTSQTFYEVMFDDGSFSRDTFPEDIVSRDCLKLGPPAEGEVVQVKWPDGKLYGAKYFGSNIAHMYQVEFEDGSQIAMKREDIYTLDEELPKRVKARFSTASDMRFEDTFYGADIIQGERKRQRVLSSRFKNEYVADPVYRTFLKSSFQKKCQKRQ

[4] = biological target: Lysine-specific demethylase 6A (Homo sapiens, UniProt O15550); assay: Inhibition of human UTX using Biotin-KAPRKQLATKAARK(me3)SAPATGG as substrate by MALDI-TOF analysis
Sequence of Lysine-specific demethylase 6A (O15550 whole entry): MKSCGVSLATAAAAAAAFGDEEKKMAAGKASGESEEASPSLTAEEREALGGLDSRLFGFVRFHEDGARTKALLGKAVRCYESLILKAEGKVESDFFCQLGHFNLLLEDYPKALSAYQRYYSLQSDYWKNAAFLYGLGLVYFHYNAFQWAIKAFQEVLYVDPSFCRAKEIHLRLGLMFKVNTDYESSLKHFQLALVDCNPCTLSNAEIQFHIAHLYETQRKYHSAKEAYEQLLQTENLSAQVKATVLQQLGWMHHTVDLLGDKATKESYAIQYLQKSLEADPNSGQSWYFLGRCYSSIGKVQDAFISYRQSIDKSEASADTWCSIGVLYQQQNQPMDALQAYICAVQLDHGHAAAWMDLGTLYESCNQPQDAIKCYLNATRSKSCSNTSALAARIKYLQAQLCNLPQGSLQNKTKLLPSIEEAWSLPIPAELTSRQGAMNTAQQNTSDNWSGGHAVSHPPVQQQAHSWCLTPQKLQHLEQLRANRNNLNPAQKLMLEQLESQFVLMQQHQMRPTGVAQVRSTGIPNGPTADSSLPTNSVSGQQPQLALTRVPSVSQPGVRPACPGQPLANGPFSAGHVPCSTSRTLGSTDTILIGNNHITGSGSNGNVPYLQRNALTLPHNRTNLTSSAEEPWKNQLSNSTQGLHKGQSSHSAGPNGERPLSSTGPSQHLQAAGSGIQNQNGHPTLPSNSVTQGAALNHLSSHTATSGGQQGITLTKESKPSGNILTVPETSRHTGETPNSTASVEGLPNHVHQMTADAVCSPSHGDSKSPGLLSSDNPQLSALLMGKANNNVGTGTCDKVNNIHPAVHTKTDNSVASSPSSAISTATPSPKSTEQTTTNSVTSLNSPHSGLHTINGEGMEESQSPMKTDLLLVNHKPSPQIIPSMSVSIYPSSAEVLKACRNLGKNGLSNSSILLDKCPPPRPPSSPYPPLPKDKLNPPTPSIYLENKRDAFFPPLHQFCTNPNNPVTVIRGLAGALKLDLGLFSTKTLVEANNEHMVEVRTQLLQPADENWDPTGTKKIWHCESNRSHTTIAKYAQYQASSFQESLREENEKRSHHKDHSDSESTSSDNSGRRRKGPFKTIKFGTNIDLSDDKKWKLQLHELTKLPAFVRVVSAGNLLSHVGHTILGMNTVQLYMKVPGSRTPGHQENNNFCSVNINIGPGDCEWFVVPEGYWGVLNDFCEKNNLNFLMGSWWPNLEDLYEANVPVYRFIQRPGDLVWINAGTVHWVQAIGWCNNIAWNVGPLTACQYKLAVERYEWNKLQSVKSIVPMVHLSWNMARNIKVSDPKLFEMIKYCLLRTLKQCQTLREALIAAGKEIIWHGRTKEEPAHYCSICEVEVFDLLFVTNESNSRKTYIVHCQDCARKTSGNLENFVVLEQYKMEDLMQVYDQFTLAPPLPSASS

[5] = biological target: Lysine-specific demethylase 5C (Homo sapiens, UniProt P41229); assay: Inhibition of human Jarid1c by MALDI-TOF analysis
Sequence of Lysine-specific demethylase 5C (P41229 whole entry): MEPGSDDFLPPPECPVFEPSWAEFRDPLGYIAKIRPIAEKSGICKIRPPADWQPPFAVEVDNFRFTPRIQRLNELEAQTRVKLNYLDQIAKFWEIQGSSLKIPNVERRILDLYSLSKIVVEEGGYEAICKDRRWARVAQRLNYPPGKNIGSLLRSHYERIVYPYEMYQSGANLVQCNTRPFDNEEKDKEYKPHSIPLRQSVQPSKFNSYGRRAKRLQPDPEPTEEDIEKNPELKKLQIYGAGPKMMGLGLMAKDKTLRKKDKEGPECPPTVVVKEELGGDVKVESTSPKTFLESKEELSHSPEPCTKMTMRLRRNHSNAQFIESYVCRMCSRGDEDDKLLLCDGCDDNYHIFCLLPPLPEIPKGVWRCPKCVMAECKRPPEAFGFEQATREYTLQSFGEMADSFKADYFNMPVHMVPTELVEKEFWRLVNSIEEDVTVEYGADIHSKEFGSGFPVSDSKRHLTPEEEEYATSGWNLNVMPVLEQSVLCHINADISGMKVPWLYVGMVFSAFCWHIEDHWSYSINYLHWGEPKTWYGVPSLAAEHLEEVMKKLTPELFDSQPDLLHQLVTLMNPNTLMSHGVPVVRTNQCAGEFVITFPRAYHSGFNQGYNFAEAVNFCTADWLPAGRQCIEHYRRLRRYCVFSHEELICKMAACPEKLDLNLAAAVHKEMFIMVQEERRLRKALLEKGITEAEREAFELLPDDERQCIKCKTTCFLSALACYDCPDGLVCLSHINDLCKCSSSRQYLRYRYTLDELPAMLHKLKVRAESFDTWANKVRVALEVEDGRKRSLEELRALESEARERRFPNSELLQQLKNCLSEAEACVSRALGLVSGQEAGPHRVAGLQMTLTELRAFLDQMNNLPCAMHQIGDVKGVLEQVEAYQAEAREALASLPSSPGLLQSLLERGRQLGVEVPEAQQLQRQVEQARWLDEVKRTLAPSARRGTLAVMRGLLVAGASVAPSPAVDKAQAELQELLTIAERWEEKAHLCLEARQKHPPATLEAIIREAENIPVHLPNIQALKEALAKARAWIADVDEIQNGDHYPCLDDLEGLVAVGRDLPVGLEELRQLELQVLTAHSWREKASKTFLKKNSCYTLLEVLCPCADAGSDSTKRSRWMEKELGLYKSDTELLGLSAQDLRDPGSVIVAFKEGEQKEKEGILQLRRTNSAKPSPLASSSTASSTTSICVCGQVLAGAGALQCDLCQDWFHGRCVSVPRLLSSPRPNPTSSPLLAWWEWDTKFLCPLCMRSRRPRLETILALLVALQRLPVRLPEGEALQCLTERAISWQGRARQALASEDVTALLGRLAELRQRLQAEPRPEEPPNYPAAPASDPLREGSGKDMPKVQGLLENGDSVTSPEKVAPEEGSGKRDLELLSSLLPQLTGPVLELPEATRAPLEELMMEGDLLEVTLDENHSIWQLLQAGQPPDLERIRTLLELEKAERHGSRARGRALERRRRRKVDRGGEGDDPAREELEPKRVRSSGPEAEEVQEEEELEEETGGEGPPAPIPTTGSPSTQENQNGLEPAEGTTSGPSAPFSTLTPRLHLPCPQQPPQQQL

[6] = biological target: T1, Lysine-specific demethylase 4A; assay: Inhibition of human JmjD2a by Alphascreen assay
[7] = Prodrug conversion in human primary macrophage lysates assessed as formation of GSK-J2 at 30 uM measured after 1 hr by RP LC-MS/MS analysis; assay type: ADME, subcellular

CCOC(=O)CCNc1cc(N2CCc3ccccc3CC2)nc(-c2ccccn2)n1
Drug metabolism [1]: 11.8 µM

O=C(O)CCNc1cc(N2CCc3ccccc3CC2)nc(-c2ccccn2)n1
IC50 [2]: > 100 µM
IC50 [3]: > 100 µM
IC50 [4]: 56 µM
IC50 [5]: > 100 µM
IC50 [6]: 44.3 µM

CCOC(=O)CCNc1cc(N2CCc3ccccc3CC2)nc(-c2cccnc2)n1
Drug metabolism [7]: 17.4 µM
